pEC50, pIC50: −log10 of the molar value.
Columns and labels:
[1] = Cell viability assay HEK293 (CellTiter-Glo); format: cell-based; conditions: human, HEK293 cells, read-out: HEK293 (CC50 code)
Protocol: (§1) Assay Condition: Used culture medium for HEK293-DMEM (PanEco, Cat #C420), for the rest of the cell lines—culture medium RPMI-1640 (PanEco, Cat #C363).
(§2) Assay Procedure: Compounds were prepared as 200× stocks with serial dilution in 100% DMSO with a final concentration of 1×. Dispersed 40 μl in 384-well plates at a concentration of 2000 cells per well for HEK293 and at a concentration of 4000 cells per well for the rest of the cell lines using a robotic station Biomek (Beckman). Before adding compounds, the cells were incubated at 37° C. (HEK293 were incubated for a day before adding compounds).
(§3) A dilution plate was prepared by pouring 78 μl of the appropriate culture medium using a robotic station Biomek (Beckman). Sequentially, using a robotic station, 2 μl of substances were taken and added to 78 μl of culture medium (dilution of compounds 40×). Took from there 10 μl and added to the plates to the cells (dilution of compounds 5×). The plates were incubated for 3 days at a temperature 37° C. After 3 days, 10 μl of CellTiter-Glo (Promega) was added to the cells and the luminescence was measured.

RS4-11 cells = assay: Cell viability assay RS4-11 (CellTiter-Glo); format: cell-based; conditions: Homo sapiens, 72 h; RS4-11 cells, 3 days, CellTiter-Glo; read-out: RS4-11 (CC50 code)
Protocol: as §1, §2, §3

BCL-XL = molecular target: T1, BCL-XL (Homo sapiens, UniProt Q07817); assay: BCL-XL TR-FRET Assay (primary PPI inhibition); format: binding; conditions: 60 min incubation; read-out: BCLxL (IC50 code, BCL-XL TR-FRET)
T1 construct: purchased BPS Bioscience #50223
Protocol: BCL-XL TR-FRET Assay (BPS Bioscience, #50223) Assay Condition: The following assay concentrations and times were used: 10.5 ng BCL-XL, 5 ul of 1:100 anti-His Tb-labeled donor, 5 ul of 1:100 Dye-labeled acceptor, 5 ul of 1:80 BCL-XL Peptide Ligand, and 2 ul of test compound, with 60 min incubation time. The results of the assay were read using a Clariostar (BMG Labtech) plate reader with the following parameters: TR FRET, 340 ex/620 and 665 em; 60 μsec Delay; and 500 μsec integration.

[2] = tested on: caspase-3 and -7 activities in RS4-11 cells; assay: Cas-3/7 activation (Caspase-Glo 3/7) in RS4-11 cells; format: cell-based; conditions: Homo sapiens, 3.5 h at 37° C. and 30 min at r.t., read-out: Cas-3/7 (EC50 code)
Protocol: Assay Principle: The Caspase-Glo 3/7 Assay is homogeneous, luminescent assay that measures caspase-3 and -7 activities. The assay provides a luminogenic caspase-3/7 substrate, which contains the tetrapeptide sequence DEVD, in a reagent optimized for caspase activity.
Assay Procedure: Incubate RS4-11 cells with varying concentrations of test compounds for 3.5 h in a humidified incubator at 37° C. and 5% CO2 and 30 min at r.t. Add 15 μl Caspase-Glo reagent to each well and incubate the plate for 30 min at r.t. Read on ClarioStar Plus instrument.
Materials: Promega Caspase-Glo (Promega, #8212); Frozen RS4-11 cells; 384-well white plate (Corning, #3570).
Instrumentation: ClarioStar Plus; Biomek FX for liquid handling (Beckman Coulter).

BCL-2 = molecular target: T2, BCL-2 (Homo sapiens, UniProt P10415); assay: BCL-2 TR-FRET Assay (primary PPI inhibition); format: binding; conditions: 60 min incubation; read-out: BCL2 (IC50 code, BCL-2 TR-FRET)
T2 construct: purchased BPS Bioscience #50222

MOLT-4 cells = assay: Cell viability assay MOLT-4 (CellTiter-Glo); format: cell-based; conditions: Homo sapiens, 72 h; MOLT-4 cells, 3 days, CellTiter-Glo; read-out: MOLT-4 (CC50 code)
Protocol: as §1, §2, §3

T1 sequence (Q07817 whole entry): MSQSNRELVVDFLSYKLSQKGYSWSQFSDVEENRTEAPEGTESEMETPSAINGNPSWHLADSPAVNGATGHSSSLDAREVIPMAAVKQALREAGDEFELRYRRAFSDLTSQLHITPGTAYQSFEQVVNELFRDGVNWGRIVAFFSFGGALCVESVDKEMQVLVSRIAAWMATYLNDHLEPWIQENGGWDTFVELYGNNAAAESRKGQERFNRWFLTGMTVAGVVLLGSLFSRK
T2 sequence (P10415 whole entry): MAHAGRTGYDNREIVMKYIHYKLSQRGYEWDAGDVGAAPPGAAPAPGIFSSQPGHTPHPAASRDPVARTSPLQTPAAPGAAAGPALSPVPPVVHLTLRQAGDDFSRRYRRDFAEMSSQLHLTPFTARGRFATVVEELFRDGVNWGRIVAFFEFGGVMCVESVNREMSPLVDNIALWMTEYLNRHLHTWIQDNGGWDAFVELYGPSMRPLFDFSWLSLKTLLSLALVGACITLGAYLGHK

Structure (SMILES) | CC50 at 3 days [1] | CC50 (RS4-11 cells) | pIC50 (BCL-XL) | pEC50 [2] | pIC50 (BCL-2) | CC50 (MOLT-4 cells)
O=C(NS(=O)(=O)c1ccc(NCC2CCOCC2)c([N+](=O)[O-])c1)c1ccc(N2CCC(CN3C(=O)C4(CCCC4)C3c3ccccc3)CC2)cc1Oc1cnc2[nH]ccc2c1 (stereo not drawn) [Compound 2, N-[3-nitro-4-(tetrahydropyran-4-ylmethylamino)phenyl]sulfonyl-4-[4-[(3-oxo-1-phenyl-2-azaspiro[3.4]octan-2-yl)methyl]-1-piperidyl]-2-(1H-pyrrolo[2,3-b]pyridin-5-yloxy)benzamide] | > 25 µM | > 0.2 µM | < 5.40 | < 6.60 | < 7.30 | > 10 µM
O=C(NS(=O)(=O)c1ccc(NCC2CCOCC2)c([N+](=O)[O-])c1)c1ccc(N2CCN(CC(O)(c3ccccc3)c3ccccc3)CC2)cc1Oc1cnc2[nH]ccc2c1 [Compound 7, 4-[4-(2-hydroxy-2,2-diphenyl-ethyl)piperazin-1-yl]-N-[3-nitro-4-(tetrahydropyran-4-ylmethylamino)phenyl]sulfonyl-2-(1H-pyrrolo[2,3-b]pyridin-5-yloxy)benzamide] | > 25 µM | > 0.2 µM | < 5.40 | < 6.60 | 7.30 to 8.00 | 2 to 10 µM
O=C(NS(=O)(=O)c1ccc(NCC2CCOCC2)c([N+](=O)[O-])c1)c1ccc(N2CCN(CC(O)(c3ccccc3)c3ccc(Cl)cc3)CC2)cc1Oc1cnc2[nH]ccc2c1 (stereo not drawn) [Compound 43, 4-[4-[2-(4-chlorophenyl)-2-hydroxy-2-phenyl-ethyl]piperazin-1-yl]-N-[3-nitro-4-(tetrahydropyran-4-ylmethylamino)phenyl]sulfonyl-2-(1H-pyrrolo[2,3-b]pyridin-5-yloxy)benzamide] | > 25 µM | > 0.2 µM | < 5.40 | < 6.60 | < 7.30 | 2 to 10 µM
CC1(O)CC[C@@H](CN2CCN(c3ccc(C(=O)NS(=O)(=O)c4ccc(NCC5CCOCC5)c([N+](=O)[O-])c4)c(Oc4cnc5[nH]ccc5c4)c3)CC2)[C@H](c2ccc(Cl)cc2)C1 (stereo partly drawn) [Compound 52, 4-[4-[[(1R,2R)-2-(4-chlorophenyl)-4-hydroxy-4-methyl-cyclohexyl]methyl]piperazin-1-yl]-N-[3-nitro-4-(tetrahydropyran-4-ylmethylamino)phenyl]sulfonyl-2-(1H-pyrrolo[2,3-b]pyridin-5-yloxy)benzamide] | 10 to 25 µM | < 0.1 µM | ≥ 5.70 | ≥ 7.00 | 8.00 to 8.30 | 2 to 10 µM
CC(C)C(=O)N1Cc2ccccc2C[C@@H]1CN1CCN(c2ccc(C(=O)NS(=O)(=O)c3ccc(NCC4CCOCC4)c([N+](=O)[O-])c3)c(Oc3cnc4[nH]ccc4c3)c2)CC1 [Compound 37, 4-[4-[[(3R)-2-(2-methylpropanoyl)-3,4-dihydro-1H-isoquinolin-3-yl]methyl]piperazin-1-yl]-N-[3-nitro-4-(tetrahydropyran-4-ylmethylamino)phenyl]sulfonyl-2-(1H-pyrrolo[2,3-b]pyridin-5-yloxy)benzamide] |  |  | < 5.40 | < 6.60 | < 7.30 | 
CC1=CC[C@@H](CN2CCN(c3ccc(C(=O)NS(=O)(=O)c4ccc(NCC5CCOCC5)c([N+](=O)[O-])c4)c(Oc4cnc5[nH]ccc5c4)c3)CC2)[C@H](c2ccc(Cl)cc2)C1 [Compound 54, 4-[4-[[(1R,6R)-6-(4-chlorophenyl)-4-methyl-cyclohex-3-en-1-yl]methyl]piperazin-1-yl]-N-[3-nitro-4-(tetrahydropyran-4-ylmethylamino)phenyl]sulfonyl-2-(1H-pyrrolo[2,3-b]pyridin-5-yloxy)benzamide] | 10 to 25 µM | 0.1 to 0.2 µM | 5.40 to 5.70 | 6.60 to 7.00 | 7.30 to 8.00 | 2 to 10 µM
CC1(C)CN(CC2CCN(c3ccc(C(=O)NS(=O)(=O)c4ccc(NCC5CCOCC5)c([N+](=O)[O-])c4)c(Oc4cnc5[nH]ccc5c4)c3)CC2)Cc2ccccc21 [Compound 39, 4-[4-[(4,4-dimethyl-1,3-dihydroisoquinolin-2-yl)methyl]-1-piperidyl]-N-[3-nitro-4-(tetrahydropyran-4-ylmethylamino)phenyl]sulfonyl-2-(1H-pyrrolo[2,3-b]pyridin-5-yloxy)benzamide] | > 25 µM | > 0.2 µM | < 5.40 | < 6.60 | < 7.30 | 2 to 10 µM
O=C(NS(=O)(=O)c1ccc(NC2CCS(=O)(=O)CC2)c([N+](=O)[O-])c1)c1ccc(N2CCC(CN3CCCCC3c3ccc(Cl)cc3)CC2)cc1Oc1cnc2[nH]ccc2c1 (stereo not drawn) [Compound 79, 4-[4-[[2-(4-chlorophenyl)-1-piperidyl]methyl]-1-piperidyl]-N-[4-[(1,1-dioxothian-4-yl)amino]-3-nitro-phenyl]sulfonyl-2-(1H-pyrrolo[2,3-b]pyridin-5-yloxy)benzamide] | > 25 µM | > 0.2 µM | < 5.40 | < 6.60 | < 7.30 | 2 to 10 µM
COCCNc1ccc(S(=O)(=O)NC(=O)c2ccc(N3CCC(CN4CCCCC4c4ccc(Cl)cc4)CC3)cc2Oc2cnc3[nH]ccc3c2)cc1[N+](=O)[O-] (stereo not drawn) [Compound 61, 4-[4-[[2-(4-chlorophenyl)-1-piperidyl]methyl]-1-piperidyl]-N-[4-(2-methoxyethylamino)-3-nitro-phenyl]sulfonyl-2-(1H-pyrrolo[2,3-b]pyridin-5-yloxy)benzamide] | > 25 µM | 0.1 to 0.2 µM | ≥ 5.70 | < 6.60 | < 7.30 | 2 to 10 µM
O=C(NS(=O)(=O)c1ccc(NC2CCOC2)c([N+](=O)[O-])c1)c1ccc(N2CCC(CN3CCCCC3c3ccc(Cl)cc3)CC2)cc1Oc1cnc2[nH]ccc2c1 (stereo not drawn) [Compound 63, 4-[4-[[2-(4-chlorophenyl)-1-piperidyl]methyl]-1-piperidyl]-N-[3-nitro-4-(tetrahydrofuran-3-ylamino)phenyl]sulfonyl-2-(1H-pyrrolo[2,3-b]pyridin-5-yloxy)benzamide] | > 25 µM | > 0.2 µM | 5.40 to 5.70 | < 6.60 | < 7.30 | 2 to 10 µM
Cc1cc(Cl)ccc1C1N(CC2CCN(c3ccc(C(=O)NS(=O)(=O)c4ccc(NCC5CCOCC5)c([N+](=O)[O-])c4)c(Oc4cnc5[nH]ccc5c4)c3)CC2)C(=O)C12CCCC2 (stereo not drawn) [Compound 3, 4-[4-[[1-(4-chloro-2-methyl-phenyl)-3-oxo-2-azaspiro[3.4]octan-2-yl]methyl]-1-piperidyl]-N-[3-nitro-4-(tetrahydropyran-4-ylmethylamino)phenyl]sulfonyl-2-(1H-pyrrolo[2,3-b]pyridin-5-yloxy)benzamide] | > 25 µM | > 0.2 µM | 5.40 to 5.70 | < 6.60 | 7.30 to 8.00 | 2 to 10 µM
CC1(C)Cc2ccccc2CN1CC1CCN(c2ccc(C(=O)NS(=O)(=O)c3ccc(NCC4CCOCC4)c([N+](=O)[O-])c3)c(Oc3cnc4[nH]ccc4c3)c2)CC1 [Compound 38, 4-[4-[(3,3-dimethyl-1,4-dihydroisoquinolin-2-yl)methyl]-1-piperidyl]-N-[3-nitro-4-(tetrahydropyran-4-ylmethylamino)phenyl]sulfonyl-2-(1H-pyrrolo[2,3-b]pyridin-5-yloxy)benzamide] |  |  | < 5.40 | < 6.60 | < 7.30 | 

Reference: patent US11834450B2, “Compounds having ((3-nitrophenyl)sulfonyl)acetamide as BCL-2 inhibitors” (Eil Therapeutics, Inc., priority 2021, dated 2023)
